This assay deals with Gal-3 (Homo sapiens, UniProt P17931). As to the kind of experiment: biolayer interferometry, steady-state analysis. In kind it is binding.
Chain of Gal-3 (P17931 2-250): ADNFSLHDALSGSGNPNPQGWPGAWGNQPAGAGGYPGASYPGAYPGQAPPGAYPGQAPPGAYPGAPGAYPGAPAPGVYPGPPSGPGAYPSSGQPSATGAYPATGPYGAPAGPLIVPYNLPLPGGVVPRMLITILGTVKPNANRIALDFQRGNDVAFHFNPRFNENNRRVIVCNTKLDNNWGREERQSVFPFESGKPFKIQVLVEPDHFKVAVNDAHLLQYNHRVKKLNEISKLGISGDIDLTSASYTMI
In general, Kd refers to the constant that tells how readily two partners part at equilibrium. A higher Kd goes with a looser complex. For `OC[C@H]1O[C@H](Oc2ccc(N=Nc3c(O)c(N=Nc4ccc(O[C@H]5O[C@H](CO)[C@H](O)[C@H](O)[C@H]5O)cc4)c(O)c(N=Nc4ccc(O[C@H]5O[C@H](CO)[C@H](O)[C@H](O)[C@H]5O)cc4)c3O)cc2)[C@H](O)[C@@H](O)[C@H]1O` [αGalY], the Kd was determined as 3.31 µM.
With `OC[C@H]1O[C@@H](Oc2ccc(N=Nc3c(O)c(N=Nc4ccc(O[C@@H]5O[C@H](CO)[C@H](O)[C@H](O)[C@H]5O)cc4)c(O)c(N=Nc4ccc(O[C@@H]5O[C@H](CO)[C@H](O)[C@H](O)[C@H]5O)cc4)c3O)cc2)[C@H](O)[C@@H](O)[C@H]1O` [βGalY] the figure was 9.14 ± 3.42 µM.
With `OC[C@H]1O[C@@H](O[C@H]2[C@H](O)[C@@H](O)[C@H](Oc3ccc(N=Nc4c(O)c(N=Nc5ccc(O[C@@H]6O[C@H](CO)[C@@H](O[C@@H]7O[C@H](CO)[C@H](O)[C@H](O)[C@H]7O)[C@H](O)[C@H]6O)cc5)c(O)c(N=Nc5ccc(O[C@@H]6O[C@H](CO)[C@@H](O[C@@H]7O[C@H](CO)[C@H](O)[C@H](O)[C@H]7O)[C@H](O)[C@H]6O)cc5)c4O)cc3)O[C@@H]2CO)[C@H](O)[C@@H](O)[C@H]1O` [βLacY] the figure was 3.46 ± 1.75 µM.

For the origin of these results see publication doi:10.1101/2025.01.14.632949v1 (biorxiv, 2025).
